Measurements as given in ChEMBL document CHEMBL1909046, “DrugMatrix in vitro pharmacology data”.

Experiments:
[1] = biological target: T1, C-X-C chemokine receptor type 1 (Homo sapiens, UniProt P25024); also: in other assays of this panel Not Active means under 50% inhibition at 10 µM
T1 sequence (P25024 whole entry): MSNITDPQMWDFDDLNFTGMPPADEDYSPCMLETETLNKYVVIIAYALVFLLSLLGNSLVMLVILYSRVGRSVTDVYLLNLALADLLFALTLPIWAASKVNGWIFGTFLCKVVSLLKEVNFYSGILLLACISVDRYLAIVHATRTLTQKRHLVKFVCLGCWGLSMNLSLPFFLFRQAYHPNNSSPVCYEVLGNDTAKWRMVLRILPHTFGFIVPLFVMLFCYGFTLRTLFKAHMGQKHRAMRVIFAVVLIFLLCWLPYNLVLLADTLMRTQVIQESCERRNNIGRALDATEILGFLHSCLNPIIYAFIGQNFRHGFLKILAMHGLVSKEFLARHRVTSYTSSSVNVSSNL

[2] = DRUGMATRIX: Potassium Channel [KATP] radioligand binding (ligand: [3H] Glyburide); format: cell membranes, Membrane; details: hit-t15; Not Active = under 50% inhibition at 10 µM
[3] = DRUGMATRIX: Interleukin IL-1 radioligand binding (ligand: [125I] interleukin 1beta); format: cell membranes, Membrane; details: nih3t3; Not Active = under 50% inhibition at 10 µM
[4] = biological target: Platelet-activating factor receptor (Homo sapiens, UniProt P25105); format: tissue-based; also: in other assays of this panel Not Active means under 50% inhibition at 10 µM
Platelet-activating factor receptor, sequence (P25105 whole entry): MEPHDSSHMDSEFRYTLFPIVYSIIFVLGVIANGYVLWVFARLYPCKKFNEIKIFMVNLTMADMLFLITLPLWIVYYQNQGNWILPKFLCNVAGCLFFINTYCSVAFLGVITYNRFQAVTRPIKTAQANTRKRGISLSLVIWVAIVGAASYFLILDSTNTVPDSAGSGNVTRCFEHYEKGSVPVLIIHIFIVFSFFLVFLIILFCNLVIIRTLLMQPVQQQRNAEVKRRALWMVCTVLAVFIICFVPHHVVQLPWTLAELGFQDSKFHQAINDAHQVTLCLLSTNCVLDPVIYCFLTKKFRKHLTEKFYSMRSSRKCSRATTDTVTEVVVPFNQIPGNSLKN

[5] = biological target: Mitogen-activated protein kinase 3 (Homo sapiens, UniProt P27361); experiment: DRUGMATRIX: Protein Serine/Threonine Kinase, ERK1 enzyme inhibition (substrate: Myelin Basic Protein); set-up: species or system Escherichia coli; details: Not Active = under 50% inhibition at 10 µM
Mitogen-activated protein kinase 3, sequence (P27361 whole entry): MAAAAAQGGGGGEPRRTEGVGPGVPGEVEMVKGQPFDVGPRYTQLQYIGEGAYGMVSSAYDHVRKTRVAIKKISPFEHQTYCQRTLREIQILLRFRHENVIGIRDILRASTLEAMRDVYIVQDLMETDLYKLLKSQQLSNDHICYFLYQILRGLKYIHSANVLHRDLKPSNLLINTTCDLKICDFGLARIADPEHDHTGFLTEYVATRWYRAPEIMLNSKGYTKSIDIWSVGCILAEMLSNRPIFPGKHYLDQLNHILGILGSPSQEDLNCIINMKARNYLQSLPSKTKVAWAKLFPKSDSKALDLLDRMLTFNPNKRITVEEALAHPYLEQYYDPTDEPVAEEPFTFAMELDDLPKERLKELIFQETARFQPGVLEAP

[6] = biological target: T2, Receptor-type tyrosine-protein phosphatase C (Homo sapiens, UniProt P08575); set-up: species or system Escherichia coli;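 also: inhibition of CD45 enzyme activity measured using DiFMUP as substrate; in other assays of this panel Not Active means under 50% inhibition at 10 µM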
T2 sequence (P08575 whole entry): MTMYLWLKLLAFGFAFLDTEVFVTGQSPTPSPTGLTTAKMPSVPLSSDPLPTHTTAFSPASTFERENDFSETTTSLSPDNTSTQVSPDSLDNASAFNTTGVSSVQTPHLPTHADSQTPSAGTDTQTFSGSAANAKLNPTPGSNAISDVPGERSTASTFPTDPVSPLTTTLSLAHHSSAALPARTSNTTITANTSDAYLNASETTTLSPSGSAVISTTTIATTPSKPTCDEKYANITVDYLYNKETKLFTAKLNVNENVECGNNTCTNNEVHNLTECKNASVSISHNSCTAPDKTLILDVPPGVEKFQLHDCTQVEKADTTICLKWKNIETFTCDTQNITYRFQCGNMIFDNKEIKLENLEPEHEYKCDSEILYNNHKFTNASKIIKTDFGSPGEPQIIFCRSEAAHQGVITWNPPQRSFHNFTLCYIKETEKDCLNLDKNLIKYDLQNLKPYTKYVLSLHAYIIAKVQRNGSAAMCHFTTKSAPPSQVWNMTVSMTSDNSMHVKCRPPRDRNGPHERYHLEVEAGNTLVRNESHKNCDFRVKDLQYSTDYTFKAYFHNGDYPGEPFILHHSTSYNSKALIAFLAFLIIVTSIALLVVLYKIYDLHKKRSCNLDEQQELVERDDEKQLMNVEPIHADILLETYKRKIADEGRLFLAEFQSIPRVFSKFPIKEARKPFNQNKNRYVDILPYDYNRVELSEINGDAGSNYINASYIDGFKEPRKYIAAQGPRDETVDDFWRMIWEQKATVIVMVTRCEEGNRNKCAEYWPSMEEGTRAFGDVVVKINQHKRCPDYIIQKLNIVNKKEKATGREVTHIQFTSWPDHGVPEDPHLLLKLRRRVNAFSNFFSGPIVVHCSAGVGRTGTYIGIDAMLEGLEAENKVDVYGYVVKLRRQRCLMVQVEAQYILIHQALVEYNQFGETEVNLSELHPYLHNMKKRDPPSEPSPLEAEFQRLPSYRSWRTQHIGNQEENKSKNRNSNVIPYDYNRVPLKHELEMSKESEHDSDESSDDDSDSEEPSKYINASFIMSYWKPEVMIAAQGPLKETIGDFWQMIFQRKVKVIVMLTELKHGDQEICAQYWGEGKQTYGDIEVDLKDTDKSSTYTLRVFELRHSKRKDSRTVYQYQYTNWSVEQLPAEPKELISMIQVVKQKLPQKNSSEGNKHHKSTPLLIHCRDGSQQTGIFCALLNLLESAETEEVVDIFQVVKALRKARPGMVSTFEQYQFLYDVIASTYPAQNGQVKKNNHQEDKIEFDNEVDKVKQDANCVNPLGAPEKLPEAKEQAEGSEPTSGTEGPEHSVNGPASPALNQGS

[7] = biological target: Mu-type opioid receptor (Homo sapiens, UniProt P35372); experiment: DRUGMATRIX: Opiate mu (OP3, MOP) radioligand binding (ligand: [3H] Diprenorphine); format: cell membranes, CHO-K1, Membrane; details: cho-k1; Not Active = under 50% inhibition at 10 µM
Mu-type opioid receptor, sequence (P35372 whole entry): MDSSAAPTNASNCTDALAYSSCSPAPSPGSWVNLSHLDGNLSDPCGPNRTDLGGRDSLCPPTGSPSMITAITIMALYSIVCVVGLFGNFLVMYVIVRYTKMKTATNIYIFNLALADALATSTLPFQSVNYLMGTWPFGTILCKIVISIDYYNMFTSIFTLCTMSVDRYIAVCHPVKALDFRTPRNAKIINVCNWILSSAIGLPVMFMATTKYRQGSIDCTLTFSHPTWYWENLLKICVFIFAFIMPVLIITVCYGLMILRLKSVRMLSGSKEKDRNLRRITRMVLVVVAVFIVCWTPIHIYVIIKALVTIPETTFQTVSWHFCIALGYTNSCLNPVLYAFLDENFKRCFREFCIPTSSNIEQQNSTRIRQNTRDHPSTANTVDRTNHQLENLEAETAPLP

[8] = biological target: Cannabinoid receptor 1 (Homo sapiens, UniProt P21554); format: cell membranes, Chem-1, Membrane; details: chem-1; also: in other assays of this panel Not Active means under 50% inhibition at 10 µM
Cannabinoid receptor 1, sequence (P21554 whole entry): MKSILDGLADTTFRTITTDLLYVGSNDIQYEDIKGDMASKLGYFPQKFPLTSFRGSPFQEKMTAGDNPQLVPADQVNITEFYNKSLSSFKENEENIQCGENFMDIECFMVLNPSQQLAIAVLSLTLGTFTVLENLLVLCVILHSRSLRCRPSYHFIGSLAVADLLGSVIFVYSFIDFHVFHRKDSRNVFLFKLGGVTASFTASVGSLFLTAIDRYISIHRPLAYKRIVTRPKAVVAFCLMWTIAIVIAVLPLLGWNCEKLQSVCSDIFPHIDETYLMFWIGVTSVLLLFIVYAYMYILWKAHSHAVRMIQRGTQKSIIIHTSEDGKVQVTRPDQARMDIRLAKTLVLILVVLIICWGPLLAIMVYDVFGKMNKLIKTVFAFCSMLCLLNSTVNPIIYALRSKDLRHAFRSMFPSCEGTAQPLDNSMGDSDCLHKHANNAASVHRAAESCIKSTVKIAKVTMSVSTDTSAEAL

[9] = DRUGMATRIX: Sodium/nucleoside co-transporter radioligand binding (ligand: nitrobenzylthioinosine); format: cell membranes, Cavia porcellus, Dunkin-Hartley, Cerebral cortex, Membrane; details: Not Active = under 50% inhibition at 10 µM
[10] = DRUGMATRIX: Serotonin (5-Hydroxytryptamine) 5-HT3 radioligand binding (ligand: [3H] GR-65630); format: cell membranes, Membrane; details: hek293; Not Active = under 50% inhibition at 10 µM
[11] = biological target: T3, Leukotriene C4 synthase (Cavia porcellus, UniProt A6XA80); format: tissue-based, Lung
T3 sequence (A6XA80 whole entry): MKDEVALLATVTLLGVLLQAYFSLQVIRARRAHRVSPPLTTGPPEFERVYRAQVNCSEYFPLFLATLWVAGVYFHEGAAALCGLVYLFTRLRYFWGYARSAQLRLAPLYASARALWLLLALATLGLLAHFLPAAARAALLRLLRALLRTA

[12] = biological target: T4, D(4) dopamine receptor (Homo sapiens, UniProt P21917); experiment: DRUGMATRIX: Dopamine D4.2 radioligand binding (ligand: [3H] Spiperone); format: cell membranes, Membrane; details: cho-k1; Not Active = under 50% inhibition at 10 µM
T4 sequence (P21917 whole entry): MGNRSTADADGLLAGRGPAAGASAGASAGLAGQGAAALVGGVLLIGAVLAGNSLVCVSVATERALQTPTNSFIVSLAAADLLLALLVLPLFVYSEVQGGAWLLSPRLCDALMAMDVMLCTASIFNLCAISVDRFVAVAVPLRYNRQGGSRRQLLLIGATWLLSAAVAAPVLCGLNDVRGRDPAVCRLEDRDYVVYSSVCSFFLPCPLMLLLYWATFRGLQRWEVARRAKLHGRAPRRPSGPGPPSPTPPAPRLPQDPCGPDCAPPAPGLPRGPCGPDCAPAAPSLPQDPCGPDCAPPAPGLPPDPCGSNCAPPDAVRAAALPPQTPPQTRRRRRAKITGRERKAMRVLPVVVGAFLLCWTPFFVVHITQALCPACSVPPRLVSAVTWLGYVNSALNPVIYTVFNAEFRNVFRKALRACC

CN1C(C(=O)Nc2ccccn2)=C(O)c2sccc2S1(=O)=O [TENOXICAM]
Not Active: IC50 [1] | IC50 [2] | Ki [2] | IC50 [3] | Ki [3] | IC50 [4] | IC50 [5] | IC50 [6] | IC50 [7] | IC50 [8] | IC50 [9] | Ki [9] | IC50 [10] | Ki [10] | IC50 [11] | IC50 [12]

O=C1CCC(N2C(=O)c3ccccc3C2=O)C(=O)N1 (stereo not drawn) [THALIDOMIDE]
Not Active: IC50 [1] | IC50 [2] | Ki [2] | IC50 [3] | Ki [3] | IC50 [4] | IC50 [5] | IC50 [6] | IC50 [7] | IC50 [8] | IC50 [9] | Ki [9] | IC50 [10] | Ki [10] | IC50 [11] | IC50 [12]

Cc1cccc(Nc2ccncc2S(=O)(=O)NC(=O)NC(C)C)c1 [TORSEMIDE]
Not Active: IC50 [1] | IC50 [2] | Ki [2] | IC50 [3] | Ki [3] | IC50 [4] | IC50 [5] | IC50 [6] | IC50 [7] | IC50 [8] | IC50 [9] | Ki [9] | IC50 [10] | Ki [10] | IC50 [11] | IC50 [12]

CC(C)C[C@H](NC(=O)[C@@H](O)[C@H](N)Cc1ccccc1)C(=O)O [UBENIMEX]
Not Active: IC50 [1] | IC50 [2] | Ki [2] | IC50 [3] | Ki [3] | IC50 [4] | IC50 [5] | IC50 [6] | IC50 [7] | IC50 [8] | IC50 [9] | Ki [9] | IC50 [10] | Ki [10] | IC50 [11] | IC50 [12]

Cc1onc(-c2ccccc2)c1-c1ccc(S(N)(=O)=O)cc1 [VALDECOXIB]
Not Active: IC50 [1] | IC50 [2] | Ki [2] | IC50 [3] | Ki [3] | IC50 [4] | IC50 [5] | IC50 [6] | IC50 [7] | IC50 [8] | IC50 [9] | Ki [9] | IC50 [10] | Ki [10] | IC50 [11] | IC50 [12]

CC[C@]1(O)C[C@@H]2CN(CCc3c([nH]c4ccccc34)[C@@](C(=O)OC)(c3cc4c(cc3OC)N(C)[C@H]3[C@@](O)(C(=O)OC)[C@H](OC(C)=O)[C@]5(CC)C=CCN6CC[C@]43[C@@H]65)C2)C1 [VINBLASTINE]
Not Active: IC50 [1] | IC50 [2] | Ki [2] | IC50 [3] | Ki [3] | IC50 [4] | IC50 [5] | IC50 [6] | IC50 [7] | IC50 [8] | IC50 [9] | Ki [9] | IC50 [10] | Ki [10] | IC50 [11] | IC50 [12]

C[C@@H](N)[C@H]1CC[C@H](C(=O)Nc2ccncc2)CC1 [Y-27632]
Not Active: IC50 [1] | IC50 [2] | Ki [2] | IC50 [3] | Ki [3] | IC50 [4] | IC50 [5] | IC50 [6] | IC50 [7] | IC50 [8] | IC50 [9] | Ki [9] | IC50 [10] | Ki [10] | IC50 [11] | IC50 [12]

[Cl-].[Cl-].[Zn+2] [ZINC CHLORIDE]
Not Active: IC50 [1] | IC50 [2] | Ki [2] | IC50 [3] | Ki [3] | IC50 [4] | IC50 [5] | IC50 [6] | IC50 [7] | IC50 [8] | IC50 [9] | Ki [9] | IC50 [10] | Ki [10] | IC50 [11] | IC50 [12]
